From ChEMBL document CHEMBL1201862, “PubChem BioAssay data set” (2004)
Active and inactive are the calls of the source.

Key:
[1] = HIV-1 Vif–A3G interaction blockers – biochemical, TR-FRET, GST-Vif 1-94, biotin-A3G peptide, dose response retest, primary screen (AID 1117319); format: functional;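 further: TR-FRET signal of purified GST-Vif binding a biotinylated A3G peptide; inhibitors lower the FRET signal by blocking Vif and A3G binding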
[2] = molecular target: FAD-linked sulfhydryl oxidase ALR (Homo sapiens, UniProt P55789); assay: ALR-catalysed DTT oxidation blockers – biochemical, H2O2 detection, luminescence, cherry-pick, dose response (AID 493248)
[3] = molecular target: Glucose-6-phosphate 1-dehydrogenase (Homo sapiens, UniProt P11413); assay: inhibition of Homo sapiens G6PD, dose series – biochemical, fluorescence, selectivity assay for P. falciparum G6PD inhibitor project, dose response (AID 504792); format: functional
[4] = molecular target: T1, Rac GTPase-activating protein 1 (Homo sapiens, UniProt Q9H0H5); assay: blockers of MgcRacGAP-driven Rac1 GTP hydrolysis – biochemical, ADP Hunter fluorescence, primary and confirmatory, confirmation (AID 624330); format: functional
T1 sequence (Q9H0H5 whole entry): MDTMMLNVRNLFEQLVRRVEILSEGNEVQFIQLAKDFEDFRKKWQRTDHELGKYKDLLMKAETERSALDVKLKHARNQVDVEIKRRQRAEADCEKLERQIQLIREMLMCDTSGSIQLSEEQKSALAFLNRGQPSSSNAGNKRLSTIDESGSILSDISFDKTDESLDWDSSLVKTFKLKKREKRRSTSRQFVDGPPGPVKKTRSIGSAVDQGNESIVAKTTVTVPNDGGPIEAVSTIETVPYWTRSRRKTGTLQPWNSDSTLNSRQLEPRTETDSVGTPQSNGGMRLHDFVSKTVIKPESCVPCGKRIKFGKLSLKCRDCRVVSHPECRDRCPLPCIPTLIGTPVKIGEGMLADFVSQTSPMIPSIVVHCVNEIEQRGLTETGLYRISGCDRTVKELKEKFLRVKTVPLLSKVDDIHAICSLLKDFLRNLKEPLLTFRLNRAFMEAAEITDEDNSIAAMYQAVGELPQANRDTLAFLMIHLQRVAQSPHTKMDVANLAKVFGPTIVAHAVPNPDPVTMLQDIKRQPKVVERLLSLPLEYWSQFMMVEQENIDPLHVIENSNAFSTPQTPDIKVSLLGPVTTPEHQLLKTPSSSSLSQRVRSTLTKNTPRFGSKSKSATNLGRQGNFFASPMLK

[5] = molecular target: T2, High affinity choline transporter 1 (Homo sapiens, UniProt Q9GZV3); assay: human choline transporter blockers, potency – cell-based, 5-point CRC, membrane potential dye, dose response (AID 504840); format: functional
T2 sequence (Q9GZV3 whole entry): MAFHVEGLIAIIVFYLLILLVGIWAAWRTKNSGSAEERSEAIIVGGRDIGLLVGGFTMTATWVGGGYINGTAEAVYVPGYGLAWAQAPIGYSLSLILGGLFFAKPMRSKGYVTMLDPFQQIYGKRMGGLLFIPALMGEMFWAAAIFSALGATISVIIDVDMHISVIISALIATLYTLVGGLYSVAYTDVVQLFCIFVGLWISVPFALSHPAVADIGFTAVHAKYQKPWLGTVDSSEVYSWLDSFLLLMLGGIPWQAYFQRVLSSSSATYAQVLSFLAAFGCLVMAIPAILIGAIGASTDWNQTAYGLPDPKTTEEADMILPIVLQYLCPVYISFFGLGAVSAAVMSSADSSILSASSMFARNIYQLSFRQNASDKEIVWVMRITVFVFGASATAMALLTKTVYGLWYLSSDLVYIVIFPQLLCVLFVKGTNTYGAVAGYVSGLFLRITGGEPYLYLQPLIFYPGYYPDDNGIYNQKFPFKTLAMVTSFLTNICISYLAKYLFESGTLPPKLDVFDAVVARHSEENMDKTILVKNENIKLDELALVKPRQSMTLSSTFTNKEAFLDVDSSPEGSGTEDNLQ

[6] = molecular target: 72 kDa type IV collagenase (Homo sapiens, UniProt P08253); assay: Dose Response validation of uHTS RPN11 inhibitor hits using a MMP-2 Fluorescence assay.; format: functional
Prothrombin = Prothrombin (Bos taurus, UniProt P00735); assay: thrombin protease inhibitors – biochemical, fluorescence polarization, uHTS hits, dose response (AID 602369); format: functional
[7] = molecular target: T3, DNA repair protein RAD52 homolog (Homo sapiens, UniProt P43351); format: functional, biochemical
T3 sequence (P43351 whole entry): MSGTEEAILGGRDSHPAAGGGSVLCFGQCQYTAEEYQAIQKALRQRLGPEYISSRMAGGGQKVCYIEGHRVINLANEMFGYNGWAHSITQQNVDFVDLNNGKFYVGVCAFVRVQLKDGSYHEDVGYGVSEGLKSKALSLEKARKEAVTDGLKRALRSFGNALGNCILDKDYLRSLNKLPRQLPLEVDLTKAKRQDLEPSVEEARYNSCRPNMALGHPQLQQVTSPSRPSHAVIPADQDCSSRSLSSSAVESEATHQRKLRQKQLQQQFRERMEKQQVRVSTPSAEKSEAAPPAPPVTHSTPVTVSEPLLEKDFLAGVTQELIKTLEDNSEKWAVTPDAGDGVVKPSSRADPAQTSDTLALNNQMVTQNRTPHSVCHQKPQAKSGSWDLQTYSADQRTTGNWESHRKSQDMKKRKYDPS

[8] = molecular target: 26S proteasome non-ATPase regulatory subunit 14 (Homo sapiens, UniProt O00487); assay: inhibition of proteasome subunit RPN11 – biochemical, fluorescence polarization, uHTS hits, confirmation (AID 602368); format: functional
[9] = molecular target: T4, Short transient receptor potential channel 4 (Mus musculus, UniProt Q9QUQ5); assay: block of DAMGO-driven TRPC4 calcium entry – cell-based, HEK293 TRPC4/mu-opioid, Fluo-4 calcium, dose response (AID 434942); format: functional;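 further: potency of inhibitors blocking the TRPC4 calcium response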
T4 sequence (Q9QUQ5 whole entry): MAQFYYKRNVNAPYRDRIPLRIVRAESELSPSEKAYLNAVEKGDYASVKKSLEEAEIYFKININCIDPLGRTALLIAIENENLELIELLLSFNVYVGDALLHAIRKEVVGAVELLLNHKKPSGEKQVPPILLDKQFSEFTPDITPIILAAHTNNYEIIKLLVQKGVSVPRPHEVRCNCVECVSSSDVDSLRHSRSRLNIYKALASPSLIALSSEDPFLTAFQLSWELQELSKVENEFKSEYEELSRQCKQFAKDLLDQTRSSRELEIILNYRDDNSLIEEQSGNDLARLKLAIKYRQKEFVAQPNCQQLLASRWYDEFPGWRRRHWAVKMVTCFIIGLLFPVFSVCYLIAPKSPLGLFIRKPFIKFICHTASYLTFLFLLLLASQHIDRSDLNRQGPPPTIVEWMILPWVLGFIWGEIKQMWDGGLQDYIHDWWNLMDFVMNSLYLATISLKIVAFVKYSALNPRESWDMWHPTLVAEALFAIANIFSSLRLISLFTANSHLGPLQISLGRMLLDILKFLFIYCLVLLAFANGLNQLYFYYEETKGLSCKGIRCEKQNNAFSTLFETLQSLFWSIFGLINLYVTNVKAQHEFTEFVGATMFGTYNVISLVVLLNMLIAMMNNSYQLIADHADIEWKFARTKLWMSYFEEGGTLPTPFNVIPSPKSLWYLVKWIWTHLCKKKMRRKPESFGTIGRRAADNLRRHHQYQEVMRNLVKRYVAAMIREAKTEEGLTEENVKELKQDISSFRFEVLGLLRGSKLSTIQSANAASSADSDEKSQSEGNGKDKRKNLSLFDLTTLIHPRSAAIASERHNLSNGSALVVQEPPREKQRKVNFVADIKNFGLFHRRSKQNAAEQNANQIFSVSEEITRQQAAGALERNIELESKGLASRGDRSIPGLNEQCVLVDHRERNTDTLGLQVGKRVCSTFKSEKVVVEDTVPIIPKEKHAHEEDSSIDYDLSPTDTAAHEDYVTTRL

Large T antigen = Large T antigen (Simian virus 40, UniProt P03070); format: functional, Betapolyomavirus macacae;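 further: Confirmatory-stage PubChem screen for compounds that inhibit SV40 T antigen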
Genome polyprotein = Genome polyprotein (dengue virus type 2, UniProt P29990); assay: flavivirus cap methylation enzyme inhibition – biochemical, confirmation dose response, primary screen (AID 588689); format: functional
HeLa = assay: ATP-based viability loss in HeLa cells – cell-based, CellTiter-Glo luminescence, cherry-pick samples, cytotoxicity control for MITF activator project, dose response (AID 540259); format: functional; conditions: Homo sapiens
Vero = assay: cells; format: functional; conditions: Chlorocebus sabaeus
[10] = viability of HCT116 lacking mutant beta-catenin – cell-based, human colon tumor, dose response (AID 1045); format: functional;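 further: HCT116 colon tumor cells with beta catenin knocked out; cells exposed to compound for 60 hours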
[11] = microbe, parasite or virus in culture; format: functional; conditions: Mycobacterium tuberculosis
Cytochrome P450 2D6 = Cytochrome P450 2D6 (Homo sapiens, UniProt P10635);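 further: CYP2D6 member of a cytochrome P450 panel assay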
[12] = viability of PTEN-deleted HCT116 cells – cell-based, HCT116 PTEN knockout, dose response (AID 1047); format: functional;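 further: HCT116 colon tumor cells with PTEN knocked out; cells exposed to compound for 60 hours before readout; potency for loss of cell viability measured by luminescence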
[13] = Luminescence Cell-Based Dose Response HTS to Identify Activators of Luciferase Translation or Activity in H4 […] Cells. [Related pubchem assays: 1829 (Project Summary), 1814 (Primary HTS)]; format: functional
[14] = Luminescence Cell-Based Dose Confirmation HTS to Identify Activators of 5'UTR Stem-Loop Driven Alpha-Synuclein mRNA Translation in H4 Neuroglioblastoma Cells. [Related pubchem assays: 1829 (Project Summary), 1814 (Primary HTS)]; format: functional
H4 = assay: Luminescence Cell-Based Dose Response HTS to Identify Activators of 5'UTR Stem-Loop Driven Prion Protein mRNA Translation in H4 Neuroglioblastoma Cells. [Related pubchem assays: 1829 (Project Summary), 1814 (Primary HTS)]; format: functional; conditions: Homo sapiens

Chain of Glucose-6-phosphate 1-dehydrogenase (P11413 whole entry): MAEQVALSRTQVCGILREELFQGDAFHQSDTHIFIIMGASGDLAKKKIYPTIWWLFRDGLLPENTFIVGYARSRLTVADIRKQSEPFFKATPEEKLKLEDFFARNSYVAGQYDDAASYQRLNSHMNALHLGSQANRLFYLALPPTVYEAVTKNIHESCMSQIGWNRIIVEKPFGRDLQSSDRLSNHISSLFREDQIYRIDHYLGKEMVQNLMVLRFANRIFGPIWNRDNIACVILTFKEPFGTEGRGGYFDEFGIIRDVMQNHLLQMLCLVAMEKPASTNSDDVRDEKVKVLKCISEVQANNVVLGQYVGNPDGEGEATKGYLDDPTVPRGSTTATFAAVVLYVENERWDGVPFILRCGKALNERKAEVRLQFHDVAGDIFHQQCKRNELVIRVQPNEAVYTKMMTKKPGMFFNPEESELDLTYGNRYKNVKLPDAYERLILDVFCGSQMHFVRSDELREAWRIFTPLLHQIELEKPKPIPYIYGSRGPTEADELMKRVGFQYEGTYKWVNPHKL
Chain of 26S proteasome non-ATPase regulatory subunit 14 (O00487 whole entry): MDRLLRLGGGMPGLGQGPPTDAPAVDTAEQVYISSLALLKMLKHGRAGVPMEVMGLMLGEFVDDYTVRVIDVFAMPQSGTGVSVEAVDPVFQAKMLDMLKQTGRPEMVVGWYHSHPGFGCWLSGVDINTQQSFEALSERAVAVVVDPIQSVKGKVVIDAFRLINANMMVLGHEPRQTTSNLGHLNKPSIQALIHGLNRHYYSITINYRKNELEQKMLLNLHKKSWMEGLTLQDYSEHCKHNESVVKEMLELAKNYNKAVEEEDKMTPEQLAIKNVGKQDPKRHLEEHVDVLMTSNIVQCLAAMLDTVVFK
Chain of 72 kDa type IV collagenase (P08253 whole entry): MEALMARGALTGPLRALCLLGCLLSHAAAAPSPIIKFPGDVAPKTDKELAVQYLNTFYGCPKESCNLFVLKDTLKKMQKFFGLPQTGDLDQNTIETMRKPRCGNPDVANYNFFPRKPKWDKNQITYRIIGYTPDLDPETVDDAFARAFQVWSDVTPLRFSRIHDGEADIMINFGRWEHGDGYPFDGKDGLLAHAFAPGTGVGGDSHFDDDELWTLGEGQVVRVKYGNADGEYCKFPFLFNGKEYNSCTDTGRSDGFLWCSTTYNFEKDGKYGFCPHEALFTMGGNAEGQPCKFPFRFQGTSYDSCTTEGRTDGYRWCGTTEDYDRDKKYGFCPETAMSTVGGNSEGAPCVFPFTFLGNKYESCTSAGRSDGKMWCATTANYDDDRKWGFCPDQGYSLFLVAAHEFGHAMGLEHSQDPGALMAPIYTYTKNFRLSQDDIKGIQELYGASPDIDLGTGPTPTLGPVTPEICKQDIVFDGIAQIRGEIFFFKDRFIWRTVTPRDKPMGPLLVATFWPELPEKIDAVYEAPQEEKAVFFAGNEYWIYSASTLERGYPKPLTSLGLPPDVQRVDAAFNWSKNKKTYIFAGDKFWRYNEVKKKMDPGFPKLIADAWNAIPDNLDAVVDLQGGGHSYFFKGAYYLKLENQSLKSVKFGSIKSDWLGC
Chain of FAD-linked sulfhydryl oxidase ALR (P55789 whole entry): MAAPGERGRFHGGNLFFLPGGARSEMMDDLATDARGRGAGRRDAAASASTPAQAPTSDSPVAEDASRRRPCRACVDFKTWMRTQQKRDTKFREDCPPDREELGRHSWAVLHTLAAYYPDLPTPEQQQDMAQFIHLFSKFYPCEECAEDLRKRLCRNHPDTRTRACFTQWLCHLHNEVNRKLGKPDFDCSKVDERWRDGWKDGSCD
Chain of Genome polyprotein (P29990 2492-3391 limits assumed): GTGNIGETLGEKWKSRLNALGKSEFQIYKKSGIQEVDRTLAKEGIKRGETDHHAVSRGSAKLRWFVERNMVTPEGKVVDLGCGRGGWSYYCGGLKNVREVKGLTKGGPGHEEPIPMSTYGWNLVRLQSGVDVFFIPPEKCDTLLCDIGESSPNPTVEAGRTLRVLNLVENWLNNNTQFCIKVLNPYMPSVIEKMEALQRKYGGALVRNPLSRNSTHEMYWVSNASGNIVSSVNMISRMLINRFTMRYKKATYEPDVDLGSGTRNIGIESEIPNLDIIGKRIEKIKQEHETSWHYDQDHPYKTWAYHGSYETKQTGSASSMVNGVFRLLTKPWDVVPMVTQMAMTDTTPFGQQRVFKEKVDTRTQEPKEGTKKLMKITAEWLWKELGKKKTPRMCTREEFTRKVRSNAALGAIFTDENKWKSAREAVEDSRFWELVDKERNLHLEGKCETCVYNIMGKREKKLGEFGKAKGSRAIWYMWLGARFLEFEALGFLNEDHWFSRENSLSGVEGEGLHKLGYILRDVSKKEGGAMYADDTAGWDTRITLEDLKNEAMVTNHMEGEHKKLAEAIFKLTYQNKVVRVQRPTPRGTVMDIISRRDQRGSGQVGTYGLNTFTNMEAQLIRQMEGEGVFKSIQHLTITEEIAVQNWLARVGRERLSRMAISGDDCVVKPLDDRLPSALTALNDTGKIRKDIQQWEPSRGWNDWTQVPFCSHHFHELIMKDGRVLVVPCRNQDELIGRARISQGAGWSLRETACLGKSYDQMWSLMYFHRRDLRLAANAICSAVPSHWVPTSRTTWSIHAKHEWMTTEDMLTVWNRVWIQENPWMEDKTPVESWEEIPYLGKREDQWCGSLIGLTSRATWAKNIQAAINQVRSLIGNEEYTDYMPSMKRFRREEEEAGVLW
Chain of Cytochrome P450 2D6 (P10635 whole entry): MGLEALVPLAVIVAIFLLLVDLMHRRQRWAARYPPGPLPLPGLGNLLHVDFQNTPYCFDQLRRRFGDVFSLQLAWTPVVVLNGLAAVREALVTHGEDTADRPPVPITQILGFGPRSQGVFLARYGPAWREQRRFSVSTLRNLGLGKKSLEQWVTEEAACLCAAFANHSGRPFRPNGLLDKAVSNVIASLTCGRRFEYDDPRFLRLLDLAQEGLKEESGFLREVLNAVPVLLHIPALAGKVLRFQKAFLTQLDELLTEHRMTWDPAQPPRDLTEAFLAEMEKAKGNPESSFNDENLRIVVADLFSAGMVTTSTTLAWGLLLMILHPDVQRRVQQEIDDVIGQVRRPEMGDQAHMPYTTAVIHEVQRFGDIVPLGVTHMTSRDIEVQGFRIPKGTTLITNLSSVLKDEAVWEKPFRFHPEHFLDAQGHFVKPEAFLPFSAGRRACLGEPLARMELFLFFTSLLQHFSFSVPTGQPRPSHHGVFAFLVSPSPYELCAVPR
Chain of Large T antigen (P03070 whole entry): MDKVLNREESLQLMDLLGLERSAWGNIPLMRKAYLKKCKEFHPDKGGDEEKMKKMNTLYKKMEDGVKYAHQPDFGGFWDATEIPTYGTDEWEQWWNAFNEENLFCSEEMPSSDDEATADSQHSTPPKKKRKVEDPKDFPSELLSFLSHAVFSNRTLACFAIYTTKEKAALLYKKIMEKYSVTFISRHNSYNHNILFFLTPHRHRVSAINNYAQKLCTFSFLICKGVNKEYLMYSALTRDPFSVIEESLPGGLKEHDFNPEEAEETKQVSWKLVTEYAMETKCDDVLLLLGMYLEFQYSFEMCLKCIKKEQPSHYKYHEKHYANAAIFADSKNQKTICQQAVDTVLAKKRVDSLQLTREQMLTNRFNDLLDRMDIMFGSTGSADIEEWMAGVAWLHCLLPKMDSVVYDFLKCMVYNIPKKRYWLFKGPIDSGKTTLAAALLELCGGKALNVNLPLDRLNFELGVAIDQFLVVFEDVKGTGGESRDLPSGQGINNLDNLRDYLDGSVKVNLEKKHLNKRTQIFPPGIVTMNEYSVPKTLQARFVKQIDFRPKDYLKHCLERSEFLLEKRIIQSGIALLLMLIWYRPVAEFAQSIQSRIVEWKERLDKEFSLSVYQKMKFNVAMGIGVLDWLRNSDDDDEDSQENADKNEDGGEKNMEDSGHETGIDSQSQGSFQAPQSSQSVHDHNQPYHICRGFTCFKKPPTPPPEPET

O=C(c1ccc(-n2cnnn2)cc1)N1CCOCC1
IC50 [1]: > 100 µM (active)

CCN(CC)c1ccc([C@H]2[C@@H]3CCCC[C@]3(O)CCN2CC(=O)NCc2ccco2)cc1
AC50 [2]: 1.54 µM (active)

COc1ccc(C(C(C(=O)c2cccs2)N2CCOCC2)N2CCOCC2)cc1OC (configuration not stated)
IC50 [1]: > 100 µM (active)

c1coc(CNc2nc(-c3cccs3)cs2)c1
IC50 [1]: > 100 µM (active)

Cn1c(=O)[nH]c(=O)c2c1nc(S)n2CCCc1ccccc1
IC50 [3]: > 80 µM (inactive)
IC50 [4]: 19.7 µM (active)

O=C(O)c1ccccc1NC(=O)c1cc(-c2ccccc2)nc2ccccc12
AC50 [2]: 0.703 µM (active)

COc1ccc(Cn2cnc3c([N+](=O)[O-])c(C)c(C)cc32)cc1
IC50 [5]: 12.3 µM (active)

CC(=O)Nc1ccc(NC(=O)c2sc3nc4c(c(-c5ccc(C)cc5)c3c2N)CCC4)cc1
IC50 [1]: > 100 µM (active)

COc1ccc(-c2cn3cc(C)ccc3n2)cc1Br
IC50 [3]: > 80 µM (inactive)

Cc1c(P(=S)(c2ccccc2)c2ccccc2)[n+]2ccccc2n1C
IC50 [6]: > 100 µM (inactive)
IC50 (Prothrombin): 62.8 µM (active)
AC50 [7]: 10.4 µM (active)
IC50 [8]: 5.42 µM (active)

Oc1ccc(Br)cc1CN1CCCCCCC1
AC50 [2]: 7.63 µM (active)

COc1ccc(O)c(-c2cc(-c3ccccc3[N+](=O)[O-])[nH]n2)c1
AC50 [2]: 4.33 µM (active)

CCOC(=O)N1CCN(C(=O)CCCn2c(=O)[nH]c3ccccc3c2=O)CC1
IC50 [5]: 13.2 µM (active)

CCOc1cc(/C=C2\SC(=S)N(NS(=O)(=O)c3ccc(C)cc3)C2=O)ccc1O
IC50 [6]: 73.8 µM (active)
IC50 (Prothrombin): 30.4 µM (active)
IC50 [8]: 36.9 µM (active)

CCOC(=O)C1(CC2CC2)CCN(Cc2cc(Cl)c(O)c(OC)c2)CC1
EC50 [9]: 3.76 µM (active)

CC(=O)N1CCN(c2ccc(NCc3cccc4ccccc34)cc2)CC1
AC50 [2]: 1.36 µM (active)
IC50 (Large T antigen): 10.1 µM (active)

Cc1cc(O)c(C(C)C)cc1N=Cc1ccc([N+](=O)[O-])cc1
IC50 (Genome polyprotein): 90.1 µM (active)
IC50 [3]: 44.4 µM (inactive)

CCN1CCN(c2nc(C)nc3c2sc(=S)n3C)CC1
IC50 [3]: > 80 µM (inactive)

CCN(CC)C(=O)c1cc2sc3ccccc3c2s1
AC50 (HeLa): 46.9 µM (active)

Cc1cccc(-c2nnc3sc(-c4ccccc4)nn23)c1
AC50 (HeLa): 189 µM (active)

Cc1cccc(NC(=O)CSc2nnc(-c3cc(C)n(-c4ccccc4)c3C)o2)c1C
EC50 [9]: 2.11 µM (active)

COc1cc(C=O)ccc1OCc1cccc(Br)c1
AC50 (HeLa): 85.9 µM (active)

O=C1c2ccccc2S(=O)(=O)c2cc(N3CCOCC3)ccc21
IC50 [6]: > 100 µM (inactive)
IC50 (Prothrombin): 24 µM (active)
IC50 [8]: 10.9 µM (active)

O=C(CCCSc1nc2ccccc2s1)NC1=NCCS1
IC50 [5]: 12 µM (active)

COc1cc(C(F)(F)F)nc2c(Br)c(C(C)(C)C)nn12
EC50 [9]: 1.5 µM (active)

COC(=O)CN1C(=O)C(O)=C(C(C)=O)C1c1ccc([N+](=O)[O-])cc1 (configuration not stated)
IC50 [1]: > 100 µM (active)

Cc1ccc(CSc2nnc(CCNC(=O)OC(C)(C)C)o2)cc1
IC50 [5]: 12.9 µM (active)

CCc1ccc(NC(=O)CCc2nc3sc4c(c3c(=O)[nH]2)CCCC4)cc1
IC50 [6]: > 100 µM (inactive)
IC50 (Prothrombin): 35.9 µM (active)
IC50 [8]: 37.6 µM (active)

O=C(COc1cccc2cccnc12)N/N=C/c1cccn1-c1ccc(F)cc1
CC50 (Vero): > 25 µM (active)

CCOc1cc(CNCCCN2CCOCC2)cc(Br)c1OCC(=O)Nc1cccc(C(F)(F)F)c1
EC50 [9]: 6.68 µM (active)
EC50 [10]: 7.97 µM (active)
CC50 [11]: 12.4 µM (active)
AC50 (Cytochrome P450 2D6): 14.1 µM (inconclusive)
EC50 [12]: 9.96 µM (active)

N#CCCn1cc(CNCc2ccccc2)c(-c2cccc([N+](=O)[O-])c2)n1
EC50 [9]: 3.76 µM (active)

Cc1cccnc1NC(=O)Nc1cccc(Cl)c1
AC50 (HeLa): > 350 µM (inactive)

CC1CCC(NC(=O)c2ccc(NS(=O)(=O)c3ccc4[nH]c(O)nc4c3)cc2)CC1 (configuration not stated)
EC50 [13]: 27.8 µM (active)
AC50 (HeLa): 53.8 µM (active)
EC50 [14]: 23.4 µM (active)
EC50 (H4): 8.97 µM (active)
